Data from patent US9115137B2, “2,3,4,5-tetrahydro-1H-pyrido[4,3-B]indole compounds and methods of use thereof” (priority 2008, dated 2015).

Legend:
[1] = molecular target: T1, human recombinant adrenergic α2A receptor (Homo sapiens, UniProt P08913); assay: Adrenergic α2A radioligand binding ([3H]MK-912); settings: compound at 1 μM; insect Sf9 cells; read-out: Adrenergic (1 μM) α2A, percent inhibition of specific binding
T1 construct: expressed in transfected cells; host or cells: insect Sf9 cells
T1 sequence (P08913 1-465): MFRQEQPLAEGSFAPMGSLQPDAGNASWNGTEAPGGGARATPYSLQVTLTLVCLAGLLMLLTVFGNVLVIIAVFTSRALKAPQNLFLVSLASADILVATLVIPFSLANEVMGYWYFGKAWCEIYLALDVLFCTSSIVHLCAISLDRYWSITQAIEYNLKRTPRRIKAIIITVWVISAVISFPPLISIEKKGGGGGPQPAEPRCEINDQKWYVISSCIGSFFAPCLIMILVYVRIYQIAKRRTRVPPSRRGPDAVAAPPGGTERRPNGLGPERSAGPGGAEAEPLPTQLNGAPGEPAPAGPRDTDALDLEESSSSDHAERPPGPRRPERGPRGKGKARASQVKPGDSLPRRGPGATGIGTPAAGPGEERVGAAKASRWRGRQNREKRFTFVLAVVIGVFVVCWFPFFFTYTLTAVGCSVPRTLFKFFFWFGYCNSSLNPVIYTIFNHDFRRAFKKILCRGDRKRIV
In short: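 Membranes from Sf9 cells expressing the receptor were incubated with 1 nM [3H]MK-912 for 60 min at 25 °C in Tris-HCl pH 7.4 with MgCl2 and EDTA. Nonspecific binding defined by 10 μM WB-4101; compounds tested at ≤1 μM (1% DMSO), reported as percent inhibition of specific binding.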

[2] = molecular target: T2, human recombinant serotonin (5-Hydroxytryptamine) 5-HT6 receptor (Homo sapiens, UniProt P50406); assay: Serotonin 5-HT6 radioligand binding ([3H]LSD); settings: compound at 1 μM; HeLa cells; read-out: Serotonin (1 μM) 5-HT6, percent inhibition of specific binding
T2 construct: expressed in transfected cells; host or cells: human HeLa cells
In short: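 HeLa membranes expressing receptor, in 50 mM Tris-HCl pH 7.4 with 150 mM NaCl, 2 mM ascorbate, 0.001% BSA, incubated with 1.5 nM [3H]LSD for 120 min at 37 °C. Nonspecific binding defined with 5 μM 5-HT.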

[3] = molecular target: T3, human recombinant adrenergic α1D receptor (Homo sapiens, UniProt P25100); assay: Adrenergic α1D radioligand binding ([3H]Prozosin); settings: compound at 1 μM; HEK-293 cells; read-out: Adrenergic (1 μM) α1D, percent inhibition of specific binding
T3 construct: expressed in transfected cells; host or cells: HEK-293 cells
T3 sequence (P25100 1-572): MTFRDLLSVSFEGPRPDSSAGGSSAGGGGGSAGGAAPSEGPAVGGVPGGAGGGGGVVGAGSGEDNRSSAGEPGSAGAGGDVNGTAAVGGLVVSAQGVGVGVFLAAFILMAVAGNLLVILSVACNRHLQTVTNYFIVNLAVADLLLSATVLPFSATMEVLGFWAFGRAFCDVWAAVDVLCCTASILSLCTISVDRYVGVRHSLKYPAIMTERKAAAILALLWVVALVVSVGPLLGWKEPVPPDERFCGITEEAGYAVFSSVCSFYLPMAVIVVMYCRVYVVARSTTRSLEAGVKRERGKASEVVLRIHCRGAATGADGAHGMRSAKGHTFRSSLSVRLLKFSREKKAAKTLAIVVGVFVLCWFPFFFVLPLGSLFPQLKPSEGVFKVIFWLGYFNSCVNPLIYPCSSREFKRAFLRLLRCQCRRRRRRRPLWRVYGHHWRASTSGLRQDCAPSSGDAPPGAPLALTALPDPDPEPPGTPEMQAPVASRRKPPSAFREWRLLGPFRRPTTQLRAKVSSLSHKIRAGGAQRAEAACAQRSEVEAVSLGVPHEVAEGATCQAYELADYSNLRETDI
In short: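 Membranes of HEK-293 cells expressing human α1D receptor incubated with 0.6 nM [3H]prazosin and compound (1 μM or lower, 1% DMSO) for 60 min at 25° C in 50 mM Tris-HCl pH 7.4. Non-specific binding defined with 10 μM phentolamine; filtration read-out given as percent inhibition of specific binding.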

[4] = molecular target: T4, human recombinant histamine H2 receptor (Homo sapiens, UniProt P25021); assay: Histamine H2 radioligand binding ([125I]aminopotentidine); settings: compound at 1 μM; CHO K1 cells; read-out: Histamine Binding (1 μM) H2, percent inhibition of specific binding
T4 construct: expressed in transfected cells; host or cells: CHO-K1 cells
In short: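 CHO-K1 membranes expressing the receptor were incubated in 50 mM phosphate buffer pH 7.4 with 0.1 nM [125I]aminopotentidine for 120 minutes at 25° C., with nonspecific binding defined by 3 μM tiotidine. Compounds were tested at 1 μM (1% DMSO); bound radioligand was counted after filtration, values given as percent inhibition of specific binding.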

T4 sequence (P25021 whole entry): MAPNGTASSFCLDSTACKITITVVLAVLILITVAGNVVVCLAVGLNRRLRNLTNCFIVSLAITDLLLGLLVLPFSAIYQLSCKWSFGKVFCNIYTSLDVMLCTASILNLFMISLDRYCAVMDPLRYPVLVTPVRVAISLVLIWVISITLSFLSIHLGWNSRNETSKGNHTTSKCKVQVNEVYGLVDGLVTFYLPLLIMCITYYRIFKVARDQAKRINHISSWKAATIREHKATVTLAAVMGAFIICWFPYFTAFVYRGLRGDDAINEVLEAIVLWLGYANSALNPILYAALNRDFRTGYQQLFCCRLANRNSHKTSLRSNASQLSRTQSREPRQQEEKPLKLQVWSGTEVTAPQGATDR
T2 sequence (P50406 whole entry): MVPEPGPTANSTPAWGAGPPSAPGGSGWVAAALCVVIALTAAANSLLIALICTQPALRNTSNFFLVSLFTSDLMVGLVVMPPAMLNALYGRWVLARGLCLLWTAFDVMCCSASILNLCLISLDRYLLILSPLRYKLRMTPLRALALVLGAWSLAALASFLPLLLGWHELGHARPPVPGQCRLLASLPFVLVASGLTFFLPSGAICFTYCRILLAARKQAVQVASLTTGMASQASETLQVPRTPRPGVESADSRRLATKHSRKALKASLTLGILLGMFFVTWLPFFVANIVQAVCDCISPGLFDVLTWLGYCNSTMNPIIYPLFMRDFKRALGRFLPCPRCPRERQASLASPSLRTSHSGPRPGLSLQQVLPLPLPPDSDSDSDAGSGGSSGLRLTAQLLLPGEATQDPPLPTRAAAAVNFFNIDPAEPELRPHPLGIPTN

Compound | inhibition at 1 µM [1] | inhibition at 1 µM [2] | inhibition at 1 µM [3] | inhibition at 1 µM [4]
CCCCOC(=O)Cn1c2c(c3cc(Cl)ccc31)CN(C)CC2 [Compound 52, butyl 2-(8-chloro-1,2,3,4-tetrahydro-2-methylpyrido[4,3-b]indol-5-yl)acetate] | 38% | 83% | 58% | 23%
Cc1ccc2c(c1)c1c(n2CCC(=O)NC(C)C)CCN(C)C1 [Compound 53] | 54% | 22% | 62% | 12%
Cc1ccc2c(c1)c1c(n2CCC(=O)NCc2ccccc2)CCN(C)C1 [Compound 59, N-benzyl-3-(1,2,3,4-tetrahydro-2,8-dimethylpyrido[4,3-b]indol-5-yl)propanamide] | 45% | 22% | 56% | 5%
CN1CCc2c(c3cc(Cl)ccc3n2CC(=O)NC2CCCCC2)C1 [Compound 60, 2-(8-chloro-1,2,3,4-tetrahydro-2-methylpyrido[4,3-b]indol-5-yl)-N-cyclohexylacetamide] | 23% | 22% | 22% | 3%
Cc1ccc2c(c1)c1c(n2CCNC(=O)C(C)C)CCN(C)C1 [Compound 61, N-(2-(1,2,3,4-tetrahydro-2,8-dimethylpyrido[4,3-b]indol-5-yl)ethyl)isobutyramide] | 46% | 10% | 28% | 13%
Cc1ccc2c(c1)c1c(n2CCNC(=O)C2CCCCC2)CCN(C)C1 [Compound 62, N-(2-(1,2,3,4-tetrahydro-2,8-dimethylpyrido[4,3-b]indol-5-yl)ethyl)cyclohexanecarboxamide] | 40% | 19% | 64% | 39%
Cc1ccc2c(c1)c1c(n2CCNC(=O)c2ccc(F)cc2Cl)CCN(C)C1 [Compound 63, 2-chloro-4-fluoro-N-(2-(1,2,3,4-tetrahydro-2,8-dimethylpyrido[4,3-b]indol-5-yl)ethyl)benzamide] | 65% | 31% | 56% | 35%
Cc1ccc2c(c1)c1c(n2CC(N)=O)CCN(C)C1 [Compound 64, 2-(1,2,3,4-tetrahydro-2,8-dimethylpyrido[4,3-b]indol-5-yl)acetamide] | 9% | 5% | 20% | -3%
Cc1ccc2c(c1)c1c(n2CCNC(=O)C2CCNCC2)CCN(C)C1 [Compound 65, N-(2-(1,2,3,4-tetrahydro-2,8-dimethylpyrido[4,3-b]indol-5-yl)ethyl)piperidine-4-carboxamide] | 17% | 3% | 11% | -7%
Cc1ccc2c(c1)c1c(n2CCNC(=O)c2ccc(F)cc2)CCN(C)C1 [Compound 66, 4-fluoro-N-(2-(1,2,3,4-tetrahydro-2,8-dimethylpyrido[4,3-b]indol-5-yl)ethyl)benzamide] | 70% | 35% | 76% | 49%
CN1CCc2c(c3cc(Cl)ccc3n2CCC(N)=O)C1 [Compound 67, 3-(8-chloro-1,2,3,4-tetrahydro-2-methylpyrido[4,3-b]indol-5-yl)propanamide] | 79% | 24% | 32% | -6%
Cc1ccc2c(c1)c1c(n2CCNC(=O)C2CCCC2)CCN(C)C1 [Compound 68, N-(2-(1,2,3,4-tetrahydro-2,8-dimethylpyrido[4,3-b]indol-5-yl)ethyl)cyclopentanecarboxamide] | 62% | 15% | 66% | 31%
Cc1ccc2c(c1)c1c(n2CCNC(=O)c2ccncc2C)CCN(C)C1 [Compound 69, N-(2-(1,2,3,4-tetrahydro-2,8-dimethylpyrido[4,3-b]indol-5-yl)ethyl)-3-methylpyridine-4-carboxamide] | 25% | -4% | 30% | 14%
Cc1ccc2c(c1)c1c(n2C2CCCCC2O)CCN(C)C1 (centres unmarked) [Compound 73, 2-(1,2,3,4-tetrahydro-2,8-dimethylpyrido[4,3-b]indol-5-yl)cyclohexanol] | 11% | 7% | 6% | 8%
